Measurements taken from patent publication US20110130380A1, “Heteroaryl Kinase Inhibitors” (priority 2009, published 2011).

target: Cdk9/cyclinT1 (Homo sapiens, UniProt P50750); test: Cdk9/cyclinT1 IMAP Protocol (fluorescence polarization kinase assay); settings: Cdk9_cyclinT1_IC50, Table V; generated using one of the two Cdk9/cyclinT1 assays (IMAP or Alpha Screen), not stated which; ATP 6 uM
Sequence (P50750 whole entry): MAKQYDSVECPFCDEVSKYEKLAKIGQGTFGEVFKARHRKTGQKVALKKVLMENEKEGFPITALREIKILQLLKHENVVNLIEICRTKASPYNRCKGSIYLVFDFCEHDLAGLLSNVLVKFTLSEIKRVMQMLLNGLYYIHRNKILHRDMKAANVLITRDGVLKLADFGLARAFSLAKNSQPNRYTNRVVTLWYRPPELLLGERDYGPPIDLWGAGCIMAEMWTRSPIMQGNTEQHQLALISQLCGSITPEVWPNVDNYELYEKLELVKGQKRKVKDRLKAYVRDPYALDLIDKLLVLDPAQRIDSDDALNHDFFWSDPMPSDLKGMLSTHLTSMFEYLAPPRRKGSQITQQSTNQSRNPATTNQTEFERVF
Sequence (O60563 whole entry partner): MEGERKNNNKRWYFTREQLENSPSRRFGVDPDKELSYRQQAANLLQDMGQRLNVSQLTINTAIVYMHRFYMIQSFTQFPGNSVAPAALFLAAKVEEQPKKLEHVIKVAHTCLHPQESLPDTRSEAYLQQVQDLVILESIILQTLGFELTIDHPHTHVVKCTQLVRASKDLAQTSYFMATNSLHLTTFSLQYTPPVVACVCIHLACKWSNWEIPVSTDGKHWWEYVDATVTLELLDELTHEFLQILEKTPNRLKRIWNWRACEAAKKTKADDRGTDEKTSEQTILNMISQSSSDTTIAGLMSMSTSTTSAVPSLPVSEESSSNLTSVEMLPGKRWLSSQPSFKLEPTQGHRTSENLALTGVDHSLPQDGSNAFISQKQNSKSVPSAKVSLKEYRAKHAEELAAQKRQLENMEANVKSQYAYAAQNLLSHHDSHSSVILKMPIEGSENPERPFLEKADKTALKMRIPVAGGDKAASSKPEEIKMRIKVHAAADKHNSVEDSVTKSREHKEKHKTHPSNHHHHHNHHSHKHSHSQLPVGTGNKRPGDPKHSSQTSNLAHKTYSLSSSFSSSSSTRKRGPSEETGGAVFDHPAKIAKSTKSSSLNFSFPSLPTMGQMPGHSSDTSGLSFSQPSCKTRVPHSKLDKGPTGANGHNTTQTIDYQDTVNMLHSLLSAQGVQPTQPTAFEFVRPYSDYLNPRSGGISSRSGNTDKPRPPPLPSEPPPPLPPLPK

Compound	IC50
CC(=O)Nc1cc(-c2cccc(NCC3CCOCC3)n2)c(Cl)cn1 [Example 69, N-{5′-Chloro-6-[(tetrahydro-pyran-4-ylmethyl)-amino]-[2,4′]bipyridinyl-2′-yl}-acetamide]	139 nM
O=C(Nc1cc(-c2cccc(NCC3CCOCC3)n2)c(Cl)cn1)[C@H]1CNC[C@@H]1O [Example 122, (3S,4R)-4-Hydroxy-pyrrolidine-3-carboxylic acid {5′-chloro-6-[(tetrahydro-pyran-4-ylmethyl)-amino]-[2,4′]bipyridinyl-2′-yl}-amide]	15 nM
O=C(Nc1cc(-c2cccc(NCC3CCCOC3)n2)c(Cl)cn1)[C@H]1CCCNC1 (stereo partly drawn) [Example 46, (S)-Piperidine-3-carboxylic acid {5′-chloro-6-[(tetrahydro-pyran-3-ylmethyl)-amino]-[2,4′]bipyridinyl-2′-yl}-amide]	56 nM
C[C@H]1CNC[C@@H](C(=O)Nc2cc(-c3cccc(NCC4CCOCC4)n3)c(Cl)cn2)C1 (single isomer, unassigned) [Example 129]	13 nM
O=C(Nc1cc(-c2cccc(NCC3CCOCC3)n2)c(Cl)cn1)[C@@H]1CCCN(CC(F)(F)F)C1 [Example 11, (R)-1-(2,2,2-Trifluoro-ethyl)-piperidine-3-carboxylic acid {5′-chloro-6-[(tetrahydro-pyran-4-ylmethyl)-amino]-[2,4′]bipyridinyl-2′-yl}-amide]	770 nM
C[C@@H]1CC[C@@H](C(=O)Nc2cc(-c3ccc(F)c(NCC4CCOCC4)n3)c(Cl)cn2)CN1C (single isomer, unassigned) [Example 196]	17 nM
CNCCC(=O)Nc1cc(-c2cccc(NCC3CCOCC3)n2)c(Cl)cn1 [Example 64, N-{5′-Chloro-6-[(tetrahydro-pyran-4-ylmethyl)-amino]-[2,4′]bipyridinyl-2′-yl}-3-methylamino-propionamide]	37 nM
COCCNc1cccc(-c2cc(NC(=O)[C@@H]3CCCNC3)ncc2Cl)n1 [Example 26, (R)-Piperidine-3-carboxylic acid [5′-chloro-6-(2-methoxy-ethylamino)-[2,4′]bipyridinyl-2′-yl]-amide]	32 nM
CS(=O)(=O)N1CCC[C@@H](C(=O)Nc2cc(-c3cccc(NCC4CCOCC4)n3)c(Cl)cn2)C1 [Example 83, (R)-1-Methanesulfonyl-piperidine-3-carboxylic acid {5′-chloro-6-[(tetrahydro-pyran-4-ylmethyl)-amino]-[2,4′]bipyridinyl-2′-yl}-amide]	482 nM

Now from value to compound:

IC50	Compound
< 8 nM	N[C@H]1CC[C@@H](C(=O)Nc2cc(-c3cccc(NCC4CCOCC4)n3)c(Cl)cn2)C1 [Example 48, (1R,3S)-3-Amino-cyclopentanecarboxylic acid {5′-chloro-6-[(tetrahydro-pyran-4-ylmethyl)-amino]-[2,4′]bipyridinyl-2′-yl}-amide]
5 nM	O=C(Nc1cc(-c2cccc(NCC3CCOCC3)n2)c(Cl)cn1)[C@H]1CNC[C@@H](F)C1 [Example 177, (3R,5S)-5-Fluoro-piperidine-3-carboxylic acid {5′-chloro-6-[(tetrahydro-pyran-4-ylmethyl)-amino]-[2,4′]bipyridinyl-2′-yl}-amide]
8 nM	COC(=O)N1CCC[C@H](C(=O)Nc2cc(-c3cccc(NCC4CCOCC4)n3)c(Cl)cn2)C1 [Example 90, (S)-3-{5′-Chloro-6-[(tetrahydro-pyran-4-ylmethyl)-amino]-[2,4′]bipyridinyl-2′-ylcarbamoyl}-piperidine-1-carboxylic acid methyl ester]
1 nM	CC1(C)CO[C@@H](CNc2nc(-c3cc(NC(=O)[C@@H]4CCCNC4)ncc3Cl)ccc2F)CO1 (single isomer, unassigned) [Example 264]
2 nM	CC1(C)C[C@@H](CNc2cccc(-c3cc(NC(=O)[C@@H]4CCCNC4)ncc3Cl)n2)CCO1 (single isomer, unassigned) [Example 116, (R)-piperidine-3-carboxylic acid {5′-chloro-6-[((S)-2,2-dimethyl-tetrahydro-pyran-4-ylmethyl)-amino]-[2,4′]bipyridinyl-2′-yl}-amide or (R)-piperidine-3-carboxylic acid {5′-chloro-6-[((R)-2,2-dimethyl-tetrahydro-pyran-4-ylmethyl)-amino]-[2,4′]bipyridinyl-2′-yl}-amide]
< 8 nM	COC(=O)N[C@@H]1CC[C@H](C(=O)Nc2cc(-c3nc(NCC4CCOCC4)ccc3Cl)c(Cl)cn2)C1 [Example 106, ((lR,3S)-3-{3,5′-Dichloro-6-[(tetrahydro-pyran-4-ylmethyl)-amino]-[2,4′]bipyridinyl-2′-ylcarbamoyl}-cyclopentyl)-carbamic acid methyl ester]
4 nM	O=C(Nc1cc(-c2cccc(NCC3CCOCC3)n2)c(Cl)cn1)[C@H]1CNC[C@@H](C(F)(F)F)C1 (single isomer, unassigned) [Example 182]
5 nM	C[C@H]1CC[C@H](C(=O)Nc2cc(-c3cccc(NCC4CCOCC4)n3)c(Cl)cn2)CN1 (single isomer, unassigned) [Example 147]
< 8 nM	N[C@@H]1CC[C@H](C(=O)Nc2cc(-c3nc(NCC4CCOCC4)ccc3Cl)c(Cl)cn2)C1 [Example 99, (1S,3R)-3-Amino-cyclopentanecarboxylic acid {3,5′-dichloro-6-[(tetrahydro-pyran-4-ylmethyl)-amino]-[2,4′]bipyridinyl-2′-yl}-amide]
6 nM	COC[C@H]1C[C@@H](C(=O)Nc2cc(-c3cccc(NCC4(C)CCOCC4)n3)c(Cl)cn2)CN1 [Example 246, (3R,5R)-5-Methoxymethyl-pyrrolidine-3-carboxylic acid {5′-chloro-6-[(4-methyl-tetrahydro-pyran-4-ylmethyl)-amino]-[2,4′]bipyridinyl-2′-yl}-amide]
1 nM	O=C(Nc1cc(-c2cccc(NCC3CCOCC3)n2)c(Cl)cn1)[C@@H]1CCCNC1 [Example 3, (R)-Piperidine-3-carboxylic acid {5′-chloro-6-[(tetrahydro-pyran-4-ylmethyl)-amino]-[2,4′]bipyridinyl-2′-yl}-amide]
2 nM	CO[C@@H]1CNC[C@H](C(=O)Nc2cc(-c3cccc(NCC4CCOCC4)n3)c(Cl)cn2)C1 (single isomer, unassigned) [Example 211]
1 nM	C[C@@H]1CC(CNc2cccc(-c3cc(NC(=O)[C@@H]4CCCNC4)ncc3Cl)n2)C[C@H](C)O1 (stereo partly drawn) [Example 159, (R)-Piperidine-3-carboxylic acid {5′-chloro-6-[((2R,6S)-2,6-dimethyl-tetrahydro-pyran-4-ylmethyl)-amino]-[2,4′]bipyridinyl-2′-yl}-amide]
3 nM	CC1(C)COC[C@H](CNc2cccc(-c3cc(NC(=O)[C@@H]4CCCNC4)ncc3Cl)n2)O1 (single isomer, unassigned) [Example 234]
5 nM	O=C(Nc1cc(-c2cccc(NCC3CCOCC3)n2)c(Cl)cn1)[C@H]1CNCCO1 [Example 96, (R)-Morpholine-2-carboxylic acid {5′-chloro-6-[(tetrahydro-pyran-4-ylmethyl)-amino]-[2,4′]bipyridinyl-2′-yl}-amide]

same assay, conditions: Cdk9_cyclinT1_IC50, generated using one of the two Cdk9/cyclinT1 assays (IMAP or Alpha Screen), not specified per value; ATP 6 uM

IC50	Compound
147 nM	Cc1ncc(-c2cc(NC(=O)C(C)C)ncc2Cl)cc1NCC1CCOCC1 [Example 310, N-{5′-Chloro-6-methyl-5-[(tetrahydro-pyran-4-ylmethyl)-amino]-[3,4′]bipyridinyl-2′-yl}-isobutyramide]
